The values that follow come from US20240083879A1, “OXALAMIDE COMPOUNDS AND COMPOSITIONS FOR TREATING CONDITIONS ASSOCIATED WITH STING ACTIVITY” (IFM Due, Inc., priority 2021, published 2024).

hSTING, sequence (Q86WV6 whole entry R71H/G230A/R293Q): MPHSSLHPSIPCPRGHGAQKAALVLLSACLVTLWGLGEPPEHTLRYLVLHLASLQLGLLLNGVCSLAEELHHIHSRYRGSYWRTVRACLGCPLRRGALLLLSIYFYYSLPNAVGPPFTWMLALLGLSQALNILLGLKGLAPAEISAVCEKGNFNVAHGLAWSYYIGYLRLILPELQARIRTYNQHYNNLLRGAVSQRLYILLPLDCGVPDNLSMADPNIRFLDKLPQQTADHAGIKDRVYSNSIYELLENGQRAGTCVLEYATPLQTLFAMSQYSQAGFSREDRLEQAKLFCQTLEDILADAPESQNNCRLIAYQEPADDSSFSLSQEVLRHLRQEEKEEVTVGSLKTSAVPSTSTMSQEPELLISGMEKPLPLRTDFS

The test has as its target hSTING (Homo sapiens (Human), UniProt Q86WV6, G230A/R293Q/R71H). The experiment in a line: STING reporter assay (luciferase) in THP1-Dual KO-IFNAR2 cells stimulated with 2'3'cGAMP. It is filed as cell-based. The conditions noted are these: 15 μM 2'3'cGAMP, 24 h. The protocol: STING pathway activation by the compounds described herein was measured using THP1-Dual™ cells (KO-IFNAR2).
THP1-Dual™ KO-IFNAR2 Cells (obtained from invivogen) were maintained in RPMI, 10% FCS, 5 ml P/S, 2 mM L-glut, 10 mM Hepes, and 1 mM sodium pyruvate. Compounds were spotted in empty 384 well tissue culture plates (Greiner 781182) by Echo for a final concentration of 0.0017-100 μM. Cells were plated into the TC plates at 40 μL per well, 2×10E6 cells/mL. For activation with STING ligand, 2′3′cGAMP (MW 718.38, obtained from Invivogen), was prepared in Optimem media.
The following solutions were prepared for each 1×384 plate: • Solution A: 2 mL Optimem with one of the following stimuli: • 60 μL of 10 mM 2′3′cGAMP→150 μM stock • Solution B: 2 mL Optimem with 60 μL Lipofectamine 2000→Incubate 5 min at RT
2 mL of solution A and 2 ml Solution B was mixed and incubated for 20 min at room temperature (RT). 20 μL of transfection solution (A+B) was added on top of the plated cells, with a final 2′3′cGAMP concentration of 15 μM. The plates were then centrifuged immediately at 340 g for 1 minute, after which they were incubated at 37° C., 5% CO2, >98% humidity for 24 h. Luciferase reporter activity was then measured. EC50 values were calculated by using standard methods known in the art.
Luciferase reporter assay: 10 μL of supernatant from the assay was transferred to white 384-plate with flat bottom and squared wells. One pouch of QUANTI-Luc™ Plus was dissolved in 25 mL of water. 100 μL of QLC Stabilizer per 25 mL of QUANTI-Luc™ Plus solution was added. 50 μL of QUANTI-Luc™ Plus/QLC solution per well was then added. Luminescence was measured on a Platereader (e.g., Spectramax I3X (Molecular Devices GF3637001)).
Luciferase reporter activity was then measured. EC50 values were calculated by using standard methods known in the art.
On the technique in general: Reporter assays use an easily measured gene product as a stand-in for the process of interest.
`CO[C@H]1C[C@H](NC(=O)C(=O)Nc2c[nH]c3ccc(-c4cnn(-c5ccc(C(F)(F)F)cc5)c4)cc23)C1` [Compound 101, N-[trans-3-methoxycyclobutyl]-N′-(5-[1-[4-(trifluoromethyl)phenyl]pyrazol-4-yl]-1H-indol-3-yl)ethanediamide] came in with an EC50 of 0.2 to 1 µM.

`O=C(Nc1c[nH]c2ccc(-c3cnn(-c4ccc(C(F)(F)F)cc4)c3)cc12)C(=O)NC1COC1` [Compound 102, N^1-(oxetan-3-yl)-N^2-(5-(1-(4-(trifluoromethyl)phenyl)-1H-pyrazol-4-yl)-1H-indol-3-yl)oxalamide] registered an EC50 of 0.2 to 1 µM.

In the case of `CCc1ccc(-n2cc(-c3ccc4[nH]cc(NC(=O)C(=O)NCCC(F)(F)F)c4c3)cn2)cc1` [Compound 103, N′-{5-[1-(4-ethylphenyl)-1H-pyrazol-4-yl]-1H-indol-3-yl}-N-(3,3,3-trifluoropropyl)ethanediamide], the 50% effective concentration (EC50) fell in the range of 0.2 to 1 µM.

In turn, `CCc1ccc(-n2cc(-c3ccc4[nH]cc(NC(=O)C(=O)NC5CCCC5)c4c3)cn2)cc1` [Compound 104, N′-cyclopentyl-N-{5-[1-(4-ethylphenyl)-1H-pyrazol-4-yl]-1H-indol-3-yl}ethanediamide] registered a concentration for a half-maximal effect (EC50) of 0.2 to 1 µM.

`CCc1ccc(-n2cc(-c3ccc4[nH]cc(NC(=O)C(=O)NCC5CC5)c4c3)cn2)cc1` [Compound 105, N-(cyclopropylmethyl)-N′-{5-[1-(4-ethylphenyl)-1H-pyrazol-4-yl]-1H-indol-3-yl}ethanediamide] had an EC50 of 0.2 to 1 µM.

Take `CCc1ccc(-n2cc(-c3ccc4[nH]cc(NC(=O)C(=O)NCC5CCCC5)c4c3)cn2)cc1` [Compound 106, N′-(cyclopentylmethyl)-N-{5-[1-(4-ethylphenyl)-1H-pyrazol-4-yl]-1H-indol-3-yl}ethanediamide]: the EC50 lay in the range of 0.2 to 1 µM.

As for `CCc1ccc(-n2cc(-c3ccc4[nH]cc(NC(=O)C(=O)N5CCC5)c4c3)cn2)cc1` [Compound 107, 2-(azetidin-1-yl)-N-{5-[1-(4-ethylphenyl)-1H-pyrazol-4-yl]-1H-indol-3-yl}-2-oxoacetamide], the EC50 was in the range of 0.2 to 1 µM.

Consider `CCc1ccc(-n2cc(-c3ccc4[nH]cc(NC(=O)C(=O)NC5CCOC5)c4c3)cn2)cc1` (stereo not drawn) [Compound 108, N-{5-[1-(4-ethylphenyl)-1H-pyrazol-4-yl]-1H-indol-3-yl}-N′-(oxolan-3-yl)ethanediamide], for which the concentration for a half-maximal effect (EC50) was in the range of 0.2 to 1 µM.

On to `CCc1ccc(-n2cc(-c3ccc4[nH]cc(NC(=O)C(=O)N[C@H]5C[C@H](OC)C5)c4c3)cn2)cc1` [Compound 109, N′-{5-[1-(4-ethylphenyl)-1H-pyrazol-4-yl]-1H-indol-3-yl}-N-[(1r,3r)-3-methoxycyclobutyl]ethanediamide], for which the concentration for a half-maximal effect (EC50) was in the range of 0.2 to 1 µM.

For the molecule `CCc1ccc(-n2cc(-c3ccc4[nH]cc(NC(=O)C(=O)NC(C)C)c4c3)cn2)cc1` [Compound 110, N′-{5-[1-(4-ethylphenyl)-1H-pyrazol-4-yl]-1H-indol-3-yl}-N-(propan-2-yl)ethanediamide], the 50% effective concentration (EC50) fell in the range of 0.2 to 1 µM.

The molecule `CCc1ccc(-n2cc(-c3ccc4[nH]cc(NC(=O)C(=O)N5CCN(C(C)=O)CC5)c4c3)cn2)cc1` [Compound 111, 2-(4-acetylpiperazin-1-yl)-N-{5-[1-(4-ethylphenyl)-1H-pyrazol-4-yl]-1H-indol-3-yl}-2-oxoacetamide] yielded an EC50 of 0.2 to 1 µM.

The molecule `CCc1ccc(-n2cc(-c3ccc4[nH]cc(NC(=O)C(=O)N(C)C)c4c3)cn2)cc1` [Compound 112, N′-{5-[1-(4-ethylphenyl)-1H-pyrazol-4-yl]-1H-indol-3-yl}-N,N-dimethylethanediamide] registered an EC50 of 0.2 to 1 µM.

For the molecule `CCc1ccc(-n2cc(-c3ccc4[nH]cc(NC(=O)C(=O)NC5CCC5)c4c3)cn2)cc1` [Compound 113, N-cyclobutyl-N′-{5-[1-(4-ethylphenyl)-1H-pyrazol-4-yl]-1H-indol-3-yl}ethanediamide], the EC50 was in the range of 0.2 to 1 µM.

With `CCc1ccc(-n2cc(-c3ccc4[nH]cc(NC(=O)C(=O)NCC(F)(F)F)c4c3)cn2)cc1` [Compound 114, N1-(5-(1-(4-ethylphenyl)-1H-pyrazol-4-yl)-1H-indol-3-yl)-N^2-(2,2,2-trifluoroethyl)oxalamide], the EC50 was 0.2 to 1 µM.

Turning to `CCc1ccc(-n2cc(-c3ccc4[nH]cc(NC(=O)C(=O)N5CCCC5)c4c3)cn2)cc1` [Compound 115, N-{5-[1-(4-ethylphenyl)-1H-pyrazol-4-yl]-1H-indol-3-yl}-2-oxo-2-(pyrrolidin-1-yl)acetamide], the EC50 lay in the range of 0.2 to 1 µM.

The molecule `CCc1ccc(-n2cc(-c3ccc4[nH]cc(NC(=O)C(=O)NCC(F)F)c4c3)cn2)cc1` [Compound 116, N-(2,2-difluoroethyl)-N′-{5-[1-(4-ethylphenyl)-1H-pyrazol-4-yl]-1H-indol-3-yl}ethanediamide] displayed a 50% effective concentration (EC50) of 0.2 to 1 µM.

On to `CNC(=O)C(=O)Nc1c[nH]c2ccc(-c3cccc(C4CC4)c3)cc12` [Compound 117, N^1-(5-(3-cyclopropylphenyl)-1H-indol-3-yl)-N^2-methyloxalamide], for which the concentration giving a half-maximal response (EC50) was 5 to 100 µM.

With `CNC(=O)C(=O)Nc1c[nH]c2ccc(-c3cnn(-c4ccc(C(F)(F)F)cc4)c3)cc12` [Compound 118, N^1-methyl-N^2-(5-(1-(4-(trifluoromethyl)phenyl)-1H-pyrazol-4-yl)-1H-indol-3-yl)oxalamide], the EC50 lay in the range of 0.2 to 1 µM.

Molecule `CNC(=O)C(=O)Nc1c[nH]c2ccc(-c3cnn(-c4cccc(Cl)c4)c3)cc12` [Compound 119, N^1-(5-(1-(3-chlorophenyl)-1H-pyrazol-4-yl)-1H-indol-3-yl)-N^2-methyloxalamide] gave an EC50 of 1 to 5 µM.

On to `CCc1ccc(-n2cc(-c3ccc4[nH]cc(NC(=O)C(=O)NCCOC)c4c3)cn2)cc1` [Compound 120, N′-{5-[1-(4-ethylphenyl)-1H-pyrazol-4-yl]-1H-indol-3-yl}-N-(2-methoxyethyl)ethanediamide], for which the EC50 lay within 0.2 to 1 µM.

Turning to `CNC(=O)C(=O)Nc1c[nH]c2ccc(-c3cnn(-c4ccccc4Cl)c3)cc12` [Compound 121, N^1-(5-(1-(2-chlorophenyl)-1H-pyrazol-4-yl)-1H-indol-3-yl)-N^2-methyloxalamide], the concentration giving a half-maximal response (EC50) lay within 1 to 5 µM.

`CNC(=O)C(=O)Nc1c[nH]c2ccc(-c3cnn(C4CCCC4)c3)cc12` [Compound 122, N^1-(5-(1-cyclopentyl-1H-pyrazol-4-yl)-1H-indol-3-yl)-N^2-methyloxalamide] had an EC50 of 5 to 100 µM.

With `CCc1ccc(-n2cc(-c3ccc4[nH]cc(NC(=O)C(=O)NC)c4c3)cn2)cc1` [Compound 123, N′-[5-[1-(4-ethylphenyl)pyrazol-4-yl]-1H-indol-3-yl]-N-methylethanediamide], the EC50 was in the range of 0.2 to 1 µM.

On to `CCc1ccc(-n2cc(-c3ccc4[nH]cc(NC(=O)C(N)=O)c4c3)cn2)cc1` [Compound 124, N^1-(5-(1-(4-ethylphenyl)-1H-pyrazol-4-yl)-1H-indol-3-yl)oxalamide], for which the EC50 fell in the range of 0.2 to 1 µM.

In general, EC50 refers to the concentration that produces a half-maximal response.
